The numbers were not newly measured in patent US20260000700A1, “TARGETED LINEAR CONJUGATES COMPRISING POLYETHYLENEIMINE AND POLYETHYLENE GLYCOL AND POLYPLEXES COMPRISING THE SAME” (TARGIMMUNE THERAPEUTICS AG, priority 2022, published 2026), which cites them from elsewhere.

The Kd is the concentration at which binding is half-saturated.

This data set has as its target EGFR (Homo sapiens, UniProt P00533).

As for YHWYGYTPQNVI [GE-11], the Kd is 22 nM.
